Laboratory results taken from patent publication US20230416329A1, “A PEPTIDE WITH DISULFIDE BONDS AND INHIBITORY ACTIVITY AGAINST SERINE PROTEASES, DERIVED HYBRID PEPTIDES THEREOF, AND USES THEREOF” (INSTITUTE OF MATERIA MEDICA , CHINESE ACADEMY OF MEDICAL …, priority 2020, published 2023).
Bridge positions count the residues as written; N and C are the ends. Peptide text beside a SMILES is read from it.

Target: α-chymotrypsin (Bos taurus, UniProt P00766)
Assay: Chymotrypsin inhibitory activity of peptides (AAPFpNA hydrolysis; IC50, Ki, residual activity)
Type: biochemical
Settings: for Ki: Ki=IC50/(1+S/Km), Km 0.38 mM; for IC50: chymotrypsin 30 nM, AAPFpNA 0.5 mM
Method: The inhibition constants of various synthetic active peptide inhibitors (molecular scaffolds) against seine proteases were measured. The substrates N-succinyl-Ala-Ala-Pro-Phe-p-nitroaniline (AAPFpNA), Nα—Benzoyl-L-arginine-4-nitroaniline hydrochloride (BApNA) and N-succinyl-[…] (AAApNA) are used in competitive binding reaction to determine the inhibitory activities against α-chymotrypsin, bovine trypsin, and porcine pancreatic elastase, respectively. Experiments for α-chymotrypsin and bovine trypsin inhibition were measured in 20 mM CaCl2, 50 mM Tris-HCl buffer (pH 7.8), and that for porcine elastase inhibition was measured in 50 mM Tris-HCl buffer (pH 8.0). The concentration of the peptide was measured using optical density (OD) at 280 nm. The Michaelis constant (Km) of the enzyme hydrolysis substrate is calculated from the initial rate of substrate hydrolysis at 405 nm. The absorbance value of the substrate was measured at 405 nm after complete hydrolysis. All data were processed using nonlinear regression.
• (1) Added a total 190 μL of reaction buffer (20 mM CaCl2, 50 mM Tris-HCl (pH 7.8)) into the 96 well plate, followed by preheating at 37° C. for 15 min. Then added 2 μL of different concentrations of substrates (p-Nitroanilide, pNA, 0.5% in DMSO), and mixed by centrifugation at 500 rpm for 1 min. Finally, the plate was incubated at 37° C. for 20 min, and the absorbance value at 405 nm was measured. In the 200 μL of reaction system, the final concentrations of pNA were 0, 0.025, 0.05, 0.075, 0.1, 0.125, 0.15, 0.25, and 0.3 mM, respectively. Make three repetitions for each concentration and plot the OD405 m value with pNA concentration to obtain the standard curve. • (2) Added a total 190 μL of reaction buffer (20 mM CaCl2, 50 mM Tris-HCl (pH 7.8)) and 8 μL of 0.75 μM chymotrypsin into the 96 well plate, followed by preheating at 37° C. for 5 min. Then added 2 μL of different concentrations of substrates (AAPFpNA, dissolved in DMSO), and mixed by centrifugation at 500 rpm for 1 min. Finally, the plate was incubated at 37° C. for 20 min, and the absorbance value at 405 nm was measured. In the 200 μL of reaction system, the final concentrations of AAPFpNA were 0, 0.125, 0.25, 0.285, 0.33, 0.4, and 0.5 mM, respectively. Make three repetitions for each concentration and plot the OD405 nm value with time to obtain the corresponding curve. Divide the slope of the curve by the slope of the standard curve and the enzyme concentration to obtain the initial velocity V0 (mM/(min*mM protein). Plot the initial velocity V0 with the concentration of substrate AAPFpNA using Prism software, and the Michaelis constant Km value of chymotrypsin hydrolyzing AAPFpNA was obtained.
• (1) Added a total 190 μL of reaction buffer (20 mM CaCl2, 50 mM Tris-HCl (pH 7.8)), different concentrations of anti-chymorypsin peptides (CHs) into the pre-cold 96 well plate, followed by preheating at 37° C. for 5 min and centrifugated at 500 rpm for 1 min and allowed to stand for 4 minutes. Then added 8 μL of 750 nM chymotrypsin and incubated at 37° C. for 10 min, and centrifugated at 500 rpm for 1 min and allowed to stand for 9 minutes. Finally, added 2 μL of 50 mM AAPFpNA, and mixed by centrifugation at 500 rpm for 1 min. The plate was incubated at 37° C. for 90 min, and the absorbance value at 405 nm was measured. Three repetitions were made, and only reaction buffer and substrate were added in the blank control as the minimum absorption value (Min OD405 nm); Only reaction buffer, enzyme and substrate were added in the negative control as the maximum absorption value (Max OD405). • (2) In the 200 μL of reaction system, the final concentrations of chymotrypsin and AAPFpNA were 30 nM and 0.5 mM, respectively. • (3) Data statistics
Residual activity of enzyme (%)=(1−(Max OD405 nm−Sample OD405 nm)/(Max OD405 nm−Min OD405 nm))*100 […]

| Compound | Ki | IC50 | Residual activity of chymotrypsin (peptide 0.001 μM) | Residual activity of chymotrypsin (peptide 0.01 μM) | Residual activity of chymotrypsin (peptide 0.1 μM) | Residual activity of chymotrypsin (peptide 10 μM) | Residual activity of chymotrypsin (peptide 100 μM) | Residual activity of chymotrypsin (peptide 1000 μM) | also measured |
| --- | --- | --- | --- | --- | --- | --- | --- | --- | --- |
| CC[C@H](C)[C@@H]1NC(=O)[C@H](CO)NC(=O)[C@H](Cc2ccccc2)NC(=O)[C@H]([C@@H](C)O)NC(=O)[C@@H](NC(=O)[C@@H](N)CC(C)C)CSSC[C@@H](C(=O)N[C@@H](Cc2ccc(O)cc2)C(=O)NCC(=O)O)NC(=O)[C@H](CCC(N)=O)NC(=O)[C@@H]2CCCN2C(=O)[C@@H]2CCCN2C1=O [CH1] (H-LCTFSIPPQCYG-OH; disulfide 2-10; N-terminus and C-terminus assumed) | 0.46 µM | 1.07 µM | 103.5 ± 1.6% | 104.8 ± 7.2% | 93.6 ± 5.5% | 10.6 ± 0.2% | 1.2 ± 0.1% | 0.5 ± 0.1% | Residual activity of chymotrypsin (peptide 1 μM): 55.0 ± 3.3%; Residual activity of chymotrypsin (peptide 3 μM): 26.4 ± 1.1%; Residual activity of chymotrypsin (peptide 300 μM): 0.3 ± 0.1% |
| CC[C@H](C)[C@@H]1NC(=O)[C@H](CO)NC(=O)[C@H](Cc2ccccc2)NC(=O)[C@H](C)NC(=O)[C@H](CC(C)C)NC(=O)[C@@H](N)CSSC[C@@H](C(=O)N[C@@H](Cc2ccc(O)cc2)C(=O)NCC(=O)O)NC(=O)[C@H](CCC(N)=O)NC(=O)[C@@H]2CCCN2C(=O)[C@@H]2CCCN2C1=O [CH2] (H-CLAFSIPPQCYG-OH; disulfide 1-10; N-terminus and C-terminus assumed) | – | > 50 µM | – | – | – | – | – | – | – |
| CC[C@H](C)[C@@H]1NC(=O)[C@H](CO)NC(=O)[C@H](Cc2ccccc2)NC(=O)[C@H](C)NC(=O)[C@H](CC(C)C)NC(=O)CNC(=O)[C@@H](N)CSSC[C@@H](C(=O)N[C@@H](Cc2ccc(O)cc2)C(=O)NCC(=O)O)NC(=O)[C@H](CCC(N)=O)NC(=O)[C@@H]2CCCN2C(=O)[C@@H]2CCCN2C1=O [CH3] (H-CGLAFSIPPQCYG-OH; disulfide 1-11; N-terminus and C-terminus assumed) | – | > 50 µM | – | – | – | – | – | – | – |
| CC[C@H](C)[C@@H]1NC(=O)[C@H](CO)NC(=O)[C@H](Cc2ccc(O)cc2)NC(=O)[C@H]([C@@H](C)O)NC(=O)[C@@H](NC(=O)[C@@H](N)CO)CSSC[C@@H](C(=O)N[C@@H](Cc2ccc(O)cc2)C(=O)NCC(=O)O)NC(=O)[C@H](CCC(N)=O)NC(=O)[C@@H]2CCCN2C(=O)[C@@H]2CCCN2C1=O [CH4] (H-SCTYSIPPQCYG-OH; disulfide 2-10; N-terminus and C-terminus assumed) | 0.55 µM | 1.28 µM | 103.2 ± 0.9% | 101.8 ± 0.8% | 100.7 ± 2.0% | 9.3 ± 1.1% | 0.7 ± 0.1% | 0.2 ± 0.0% | Residual activity of chymotrypsin (peptide 0.3 μM): 86.7 ± 1.4%; Residual activity of chymotrypsin (peptide 0.6 μM): 70.4 ± 2.8%; Residual activity of chymotrypsin (peptide 2.5 μM): 34.6 ± 4.3%; Residual activity of chymotrypsin (peptide 7.5 μM): 13.8 ± 0.6% |
| CC[C@H](C)[C@@H]1NC(=O)[C@H](CO)NC(=O)[C@H](Cc2ccc(O)cc2)NC(=O)[C@H]([C@@H](C)O)NC(=O)CNC(=O)[C@H](CO)NC(=O)CNC(=O)[C@@H](N)CSSC[C@@H](C(=O)N[C@@H](Cc2ccc(O)cc2)C(=O)NCC(=O)O)NC(=O)[C@H](CCC(N)=O)NC(=O)[C@@H]2CCCN2C(=O)[C@@H]2CCCN2C1=O [CH6] (H-CGSGTYSIPPQCYG-OH; disulfide 1-12; N-terminus and C-terminus assumed) | – | > 50 µM | – | – | – | – | – | – | – |
